For six molecules, MIC results are on record in ChEMBL document CHEMBL1134115, “Antimycobacterial activity of 9-sulfonylated/sulfenylated-6-mercaptopurine derivatives” (Bioorg Med Chem Lett, 2001).

Values after ≈ are worked out from the molar mass of the structure shown.

Assay type in all cases: functional
Test [1] has as its system Mycobacterium tuberculosis. The test is described as follows: Antimycobacterial activity against Mycobacterium tuberculosis strain resistant to cycloserine (CS).
Test [2] concerns Mycobacterium tuberculosis. The test is described as follows: Antimycobacterial activity against Mycobacterium tuberculosis strain resistant to ethambutol (EMB).
In test [3] the test system is Mycobacterium tuberculosis. The test is described as follows: Antimycobacterial activity against Mycobacterium tuberculosis strain resistant to isoniazid (INH).
In test [4] the test system is Mycobacterium tuberculosis. The test is described as follows: Antimycobacterial activity against Mycobacterium tuberculosis strain resistant to pyrazinamide (PZA).
Test [5] concerns Mycobacterium tuberculosis. The test is described as follows: Antimycobacterial activity against Mycobacterium tuberculosis strain resistant to ethionamide (ETA).
The subject of test [6] is Mycobacterium tuberculosis. Kind of test: Antimycobacterial activity against Mycobacterium tuberculosis strain resistant to kanamycin (KM).
For test [7], the system named is Mycobacterium tuberculosis. Kind of test: Antimycobacterial activity against Mycobacterium tuberculosis strain resistant to rifampin (RMP).
Test [8] relates to Mycobacterium tuberculosis. The test is described as follows: Antimycobacterial activity against Mycobacterium tuberculosis strain resistant to thiacetazone (TAC).
The test system of test [9] is Mycobacterium tuberculosis. The test is described as follows: Antimycobacterial activity against Mycobacterium tuberculosis strain resistant to para-aminosalicilyc acid (PAS).

Turning to `CN(C)S(=O)(=O)n1cnc2c(=S)[nH]cnc21`, the MIC in [1] was 3.13 µg/mL (≈ 12.1 µM); in test [2], 3.13 µg/mL (≈ 12.1 µM); in test [3], 6.25 µg/mL (≈ 24.1 µM); in [4] it was 3.13 µg/mL (≈ 12.1 µM); in test [5], 12.5 µg/mL (≈ 48.2 µM); in test [6] it was 6.25 µg/mL (≈ 24.1 µM). The values for the MIC in [7], in test [8] and in test [9] were 6.25 µg/mL (≈ 24.1 µM), 3.13 µg/mL (≈ 12.1 µM) and 3.13 µg/mL (≈ 12.1 µM), respectively.
As to `O=[N+]([O-])c1ccc(Sn2cnc3c(S)ncnc32)cc1`, the MIC in test [2] was found to be 0.78 µg/mL (≈ 2.55 µM); in test [3] it was 6.25 µg/mL (≈ 20.5 µM); in test [6], 1.56 µg/mL (≈ 5.11 µM); in test [7], 0.78 µg/mL (≈ 2.55 µM).
For `Nc1cccc(S(=O)(=O)n2cnc3c(S)ncnc32)c1`, the MIC was determined as 12.5 µg/mL (≈ 40.7 µM) in [1]; 12.5 µg/mL (≈ 40.7 µM) in test [2]; 12.5 µg/mL (≈ 40.7 µM) in test [3]; 12.5 µg/mL (≈ 40.7 µM) in [4]; 50 µg/mL (≈ 163 µM) in test [5]; 12.5 µg/mL (≈ 40.7 µM) in [6]. For the same molecule, the MIC in test [7], in [8] and in [9] was 12.5 µg/mL (≈ 40.7 µM) each time.
As for `CO[C@H]1/C=C/O[C@@]2(C)Oc3c(C)c(O)c4c(O)c(c(/C=N/N5CCN(C)CC5)c(O)c4c3C2=O)NC(=O)/C(C)=C\C=C\[C@H](C)[C@H](O)[C@@H](C)[C@@H](O)[C@@H](C)[C@H](OC(C)=O)[C@@H]1C` [RIFAMPIN], the MIC in test [1], in test [2], in test [3], in [4], in [5] and in test [6] was 0.125 µg/mL (≈ 0.152 µM) in each case. Besides, the MIC in test [7] is more than 8 µg/mL; in [8], 0.125 µg/mL (≈ 0.152 µM); in test [9], 0.125 µg/mL (≈ 0.152 µM).
Regarding `O=S(=O)(c1ccc(Cl)cc1)n1cnc2c(S)ncnc21`, the MIC in test [1] came to 6.25 µg/mL (≈ 19.1 µM); in test [2], 6.25 µg/mL (≈ 19.1 µM); in test [3] it was 12.5 µg/mL (≈ 38.3 µM); in test [4] it was 12.5 µg/mL (≈ 38.3 µM); in [5], 25 µg/mL (≈ 76.5 µM); in test [6], 12.5 µg/mL (≈ 38.3 µM). Also, the MIC in [7] came out at 12.5 µg/mL (≈ 38.3 µM); in test [8], 6.25 µg/mL (≈ 19.1 µM); in [9], 6.25 µg/mL (≈ 19.1 µM).
For the molecule `CC(=O)Nc1ccc(S(=O)(=O)n2cnc3c(S)ncnc32)cc1`, the minimum inhibitory concentration (MIC) in [1] was found to be 6.25 µg/mL (≈ 17.9 µM); in test [2] it was 6.25 µg/mL (≈ 17.9 µM); in test [3] it was 12.5 µg/mL (≈ 35.8 µM); in test [4] it was 6.25 µg/mL (≈ 17.9 µM); in test [5], 25 µg/mL (≈ 71.6 µM); in test [6], 12.5 µg/mL (≈ 35.8 µM). Besides, the values for the MIC in test [7], in test [8] and in test [9] were 12.5 µg/mL (≈ 35.8 µM), 6.25 µg/mL (≈ 17.9 µM) and 6.25 µg/mL (≈ 17.9 µM), respectively.
